Among the data in patent US4393225A, “AI-77 Compounds and pharmaceutically acceptable salts thereof” (Asahi Kasei Kogyo Kabushiki Kaisha, priority 1979, dated 1983) are inhibition in vivo values, retold here.

In the assay the test system is ulcer. The assay is described as follows: Anti-ulcer test (restraint and water immersion ulcer in rats, i.p.). The format is in vivo, Male Wistar rats. To be noted: Rattus norvegicus, ip, read-out: % Inhibition of Ulcer; for inhibition in vivo at 25 mg/kg: 25 mg/kg i.p.; for inhibition in vivo at 50 mg/kg: 50 mg/kg i.p. In a few lines: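 Male Wistar rats (~150 g), fasted 24 h, dosed i.p. with compound in physiological saline; 1 h later restrained and immersed to xiphisternum in 21 °C water for 6 h. Stomachs examined microscopically, ulcers scored 0–3, and percent inhibition calculated.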

Take `CC(C)=CCCC(C)=CCNC(=O)CC(N)C(O)C(O)C(=O)NC(CC(C)C)C1Cc2cccc(O)c2C(=O)O1` (centres unmarked) [VII-1-30]: the inhibition in vivo at 25 mg/kg came out at 83%. For the compound `CC(C)CC(NC(=O)C(O)C(O)C(N)CC(=O)NCC1CCCO1)C1Cc2cccc(O)c2C(=O)O1` (centres unmarked) [VII-1-15], the inhibition in vivo at 25 mg/kg was 89%.

Take `CCCCCCCCC=CCCCCCCCC(=O)NC1CC(=O)OC1C(OC(C)=O)C(=O)NC(CC(C)C)C1Cc2cccc(OC(C)=O)c2C(=O)O1` (centres unmarked) [IIIa-3-5]: the inhibition in vivo at 50 mg/kg came out at 22%.

For `CCNC1CC(=O)OC1C(OC)C(=O)NC(CC(C)C)C1Cc2cccc(O)c2C(=O)O1` (centres unmarked) [IIIa-25-9], the inhibition in vivo at 50 mg/kg came to 66%. On the same count and under the same terms, as for `CC(=O)Oc1cccc2c1C(=O)OC(C(CC(C)C)NC(=O)C(O)C1OC(=O)CC1NC(=O)c1ccc(C)cc1)C2` (centres unmarked) [IIIa-4-7], the figure is 33%; as for `CCOc1cccc2c1C(=O)OC(C(CC(C)C)NC(=O)C(O)C1OC(=O)CC1NC(=O)CC(C)OC)C2` (centres unmarked) [IIIa-5-41], 33%. The same measure, in the same setting: the figure for `CCOc1cccc2c1C(=O)OC(C(CC(C)C)NC(=O)C(O)C1OC(=O)CC1NC(=O)c1ccc(SC)cc1)C2` (centres unmarked) [IIIa-5-45] is 33%; for `CCOc1cccc2c1C(=O)OC(C(CC(C)C)NC(=O)C(O)C1OC(=O)CC1NC(=O)C1CCCO1)C2` (centres unmarked) [IIIa-5-23] it is 44%. Take `CCCC(=O)NC1CC(=O)OC1C(OC)C(=O)NC(CC(C)C)C1Cc2cccc(OCc3ccc4ccccc4c3)c2C(=O)O1` (centres unmarked) [IIIa-7-13]: the inhibition in vivo at 50 mg/kg worked out at 33%. In the case of `CC(C)CC(NC(=O)C(O)C1OC(=O)CC1NC(=O)C(Cl)(Cl)Cl)C1Cc2cccc(OC(=O)C(Cl)(Cl)Cl)c2C(=O)O1` (centres unmarked) [IIIa-4-9], the inhibition in vivo at 50 mg/kg was 33%.

In the case of `CCNC(CC(N)=O)C(O)C(O)C(=O)NC(CC(C)C)C1Cc2cccc(OC(C)=O)c2C(=O)O1` (centres unmarked) [VII-13-1], the inhibition in vivo at 25 mg/kg stood at 83%. Regarding `CCCCOc1cccc2c1C(=O)OC(C(CC(C)C)NC(=O)C(OCCCC)C(O)C(N)CC(N)=O)C2` (centres unmarked) [VII-7-2], the inhibition in vivo at 25 mg/kg is 72%. With `Cc1ccc(COc2cccc3c2C(=O)OC(C(CC(C)C)NC(=O)C(O)C2C=CC(=O)O2)C3)cc1` (centres unmarked) [IVa-4-21], the inhibition in vivo at 50 mg/kg was 33%. Consider `CCC(=O)OC(C(=O)NC(CC(C)C)C1Cc2cccc(O)c2C(=O)O1)C1C=CC(=O)O1` (centres unmarked) [IVa-1-2], for which the inhibition in vivo at 50 mg/kg came out at 44%.

For the compound `Cc1ccc(CC(=O)NC2CC(=O)OC2C(O)C(=O)NC(CC(C)C)C2Cc3cccc(O)c3C(=O)O2)cc1` (centres unmarked) [IIIa-1-65], the inhibition in vivo at 50 mg/kg turned out to be 66%. For `CCC(C)CCCCCNC(=O)CC(N)C(O)C(O)C(=O)NC(CC(C)C)C1Cc2cccc(O)c2C(=O)O1` (centres unmarked) [VII-1-31], the inhibition in vivo at 25 mg/kg was found to be 83%. As for `CCOc1cccc2c1C(=O)OC(C(CC(C)C)NC(=O)C(O)C1OC(=O)CC1NC(=O)C1CCC(C(=O)OC)CC1)C2` (centres unmarked) [IIIa-5-66], the inhibition in vivo at 50 mg/kg is 44%. With `COC(C)CC(=O)NC1CC(=O)OC1C(OC(C)=O)C(=O)NC(CC(C)C)C1Cc2cccc(OC(C)=O)c2C(=O)O1` (centres unmarked) [IIIa-3-7], the inhibition in vivo at 50 mg/kg was 33%. Regarding `CCCCCCCCCCCCCCCCCCNC1CC(=O)OC1C(OC(C)=O)C(=O)NC(CC(C)C)C1Cc2cccc(OCC)c2C(=O)O1` (centres unmarked) [IIIa-23-3], the inhibition in vivo at 50 mg/kg was found to be 44%. Consider `CCNC(=O)CC(N)C(O)C(OC)C(=O)NC(CC(C)C)C1Cc2cccc(OC(=O)CC)c2C(=O)O1` (centres unmarked) [VII-9-1], for which the inhibition in vivo at 25 mg/kg worked out at 66%. Consider `CCCCCCCCC=CCCCCCCCC(=O)OC(C(=O)NC(CC(C)C)C1Cc2cccc(OC(=O)CC)c2C(=O)O1)C1OC(=O)CC1N` (centres unmarked) [IIIa-11-5], for which the inhibition in vivo at 50 mg/kg stood at 44%.

Regarding `COC(C(=O)NC(CC(C)C)C1Cc2cccc(OC(C)=O)c2C(=O)O1)C(O)C(N)CC(N)=O` (centres unmarked) [VII-9-3], the inhibition in vivo at 25 mg/kg turned out to be 72%. As to `CCCCCCCC(=O)OC(C(=O)NC(CC(C)C)C1Cc2cccc(O)c2C(=O)O1)C1C=CC(=O)O1` (centres unmarked) [IVa-1-9], the inhibition in vivo at 50 mg/kg turned out to be 33%. On to `CCCCCSCCNC1CC(=O)OC1C(O)C(=O)NC(CC(C)C)C1Cc2cccc(O)c2C(=O)O1` (centres unmarked) [IIIa-18-39], for which the inhibition in vivo at 50 mg/kg turned out to be 94%. On the same count and under the same terms, the figure for `CCNC(CC(=O)O)C(O)C(OC(C)=O)C(=N)NC(CC(C)C)C1Cc2cccc(O)c2C(=O)O1` (centres unmarked) [Vb-11-1] is 78%.

In the case of `CCC(=O)OC(C(=O)NC(CC(C)C)C1Cc2cccc(OCC3CCCCC3)c2C(=O)O1)C1OC(=O)CC1NC(C)=O` (centres unmarked) [IIIa-6-10], the inhibition in vivo at 50 mg/kg is 33%. Still for that read-out and setting: as for `CCOc1cccc2c1C(=O)OC(C(CC(C)C)NC(=O)C(O)C1OC(=O)CC1NC(=O)CC(C)OC(C)=O)C2` (centres unmarked) [IIIa-5-47], the figure is 33%; as for `CCNC1CC(=O)OC1C(OC)C(=O)NC(CC(C)C)C1Cc2cccc(OCC)c2C(=O)O1` (centres unmarked) [IIIa-24-1], 56%; as for `CCC(=O)C(=O)NC1CC(=O)OC1C(O)C(=O)NC(CC(C)C)C1Cc2cccc(O)c2C(=O)O1` (centres unmarked) [IIIa-1-32], 66%.
